Here are results for 16 compounds from patent publication EP2125859B1, “ESTRATRIENE DERIVATIVES AND THEIR USES AS 17BETA-HYDROXYSTEROID DEHYDROGENASE INHIBITORS” (Abbott Products GmbH, priority 2006, dated 2008).

The target of test [1] is T1, recombinant human 17β-HSD1 (Homo sapiens, UniProt P14061).
T1 construct: made in house; host or cells: Sf9 insect cells (baculovirus, Bac to Bac Expression System)
T1 sequence (P14061 1-328): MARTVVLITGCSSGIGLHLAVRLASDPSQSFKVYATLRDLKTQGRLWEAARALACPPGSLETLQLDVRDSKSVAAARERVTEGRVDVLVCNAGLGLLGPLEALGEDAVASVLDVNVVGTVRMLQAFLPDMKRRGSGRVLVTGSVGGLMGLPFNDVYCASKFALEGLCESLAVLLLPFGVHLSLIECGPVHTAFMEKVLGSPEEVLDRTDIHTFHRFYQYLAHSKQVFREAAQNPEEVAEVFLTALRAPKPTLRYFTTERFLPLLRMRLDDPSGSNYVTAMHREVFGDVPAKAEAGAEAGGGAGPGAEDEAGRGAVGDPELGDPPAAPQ
Nature of the test: Inhibition of recombinant human 17β-HSD1 (HPLC assay, conversion of 3H-estrone to estradiol). As to conditions: 30 nM 3H-estrone, 1 mM NADPH, 30 min at RT; for inhibition at 0.1 µM / inhibition at 1 µM: 0.5 h, read-out: inhibition of rec. 17β-HSD1. The class given is biochemical. The protocol:
Inhibition of the 17β-hydroxysteroid dehydrogenase type 1 enzyme 17β-HSD1 purification: Recombinant baculovirus was generated by the "Bac to Bac Expression System" (Invitrogen). Recombinant bacmid was transfected to Sf9 insect cells using "Cellfectin Reagent" (Invitrogen). 60h later cells were harvested; the microsomal fraction was isolated as described by Puranen et al. (1994). Aliquots were stored frozen until determination of enzymatic activity.
Assay - Inhibition of recombinant human 17β-HSD1: Recombinant protein (0.1 µg/ml) was incubated in 20 mM KH2PO4 pH 7.4 with 30 nM 3H-estrone and 1 mM NADPH for 30 min at RT, in the presence of potential inhibitors at concentrations of 1 µM or 0.1 µM. Inhibitor stock solutions were prepared in DMSO. Final concentration of DMSO was adjusted to 1 % in all samples. The enzyme reaction was stopped by addition of 10 % trichloroacetic acid (final concentration). Samples were centrifuged in a microtiter plate at 4000 rpm for 10 min. Supernatants were applied to reverse phase HPLC on a Waters Symmetry C18 column, equipped with a Waters Sentry Guard column. Isocratic HPLC runs were performed at RT at a flow rate of 1 ml/min of acetonitrile:water 48:52 as running solvent. Radioactivity was monitored in the eluate by a Packard Flow Scintillation Analyzer. Total radioactivity for estrone and estradiol were determined in each sample and percent conversion of estrone to estradiol was calculated according to the following formula: [formula] [formula]
The values "% inhibition" were determined for exemplified compounds, and the results are summarized in table 4 (for 17β-HSD1). table 4: HSD 1 inhibition values in % of selected compounds of formula I

In a further test the target is T2, 17β-HSD3 (Homo sapiens, UniProt P37058).
T2 construct: expressed in transfected cells; host or cells: MCF-7 cells stably expressing 17β-HSD3
T2 sequence (P37058 1-310): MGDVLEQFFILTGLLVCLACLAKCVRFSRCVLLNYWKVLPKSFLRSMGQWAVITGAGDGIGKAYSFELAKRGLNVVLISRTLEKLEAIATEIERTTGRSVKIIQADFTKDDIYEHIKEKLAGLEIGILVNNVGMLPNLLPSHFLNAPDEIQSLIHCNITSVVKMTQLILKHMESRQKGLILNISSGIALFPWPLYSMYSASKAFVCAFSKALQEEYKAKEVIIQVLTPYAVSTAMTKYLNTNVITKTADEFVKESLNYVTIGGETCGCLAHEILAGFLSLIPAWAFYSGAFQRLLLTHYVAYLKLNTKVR
Nature of the test: Inhibition of 17β-HSD3 in MCF-7 cell lines stably expressing the enzyme (HPLC, tritium labeled androstenedione). The class given is cell-based. As to conditions: MCF7, MCF-7 cells expressing 17β-HSD3, androstenedione 2 nM. The protocol: The compounds were screened in respect of 17β-HSD3 enzyme activity in vitro on established MCF-7 cell lines, each stably expressing the 17β-HSD3 enzyme. The interconversion of substrate by 17β-HSD3 and the 17β-HSD3 inhibiting activity of chemical compounds in these cell lines were detected by HPLC system.
Varying amounts of the test compounds were incubated in the growth medium of the 17β-HSD3 expressing cells together tritium labeled androstenedione (2 nM). The medium samples were removed after exact incubation time and the reaction is stopped by trichloroacetic acid (TCA). The samples were analyzed by HPLC-coupled flow scintillation analysis.
Conversion: The 17β-HSD3 inhibiting activity of an individual test compound was calculated by comparing the conversion of a control sample without any test compound (referred to as "Negative Control") to the (reduced) conversion of the test sample containing the particular compound to be tested (referred to as "Test Sample"). [formula]
Two concentrations of each compound were used. The number of the compound refers to the numbers indicated in the Experimental Section.
The values "% inhibition" were determined for exemplified compounds, and the results are summarized in table 5 (HSD 3). table 5: 17β-HSD3 inhibition values in % of selected compounds of formula I

As a reminder, the inhibition is the change of the read-out against control, counted positive when it falls.

With `C[C@]12CC[C@@H]3c4ccc(O)cc4CC[C@H]3[C@@H]1[C@H](CCCn1cc(-c3ccc(OC(F)(F)F)cc3)nn1)CC2=O` [Compound 32, 3-Hydroxy-15β-{3-[4-(4-trifluoromethoxy-phenyl)-[1,2,3]triazol-1-yl]-propyl}-estra-1,3,5(10)-trien-17-one], the inhibition at 0.1 µM in test [1] (100 nM inhibitor) worked out at 67%. Also, the inhibition at 1 µM in test [1] (1 µM inhibitor) was 81%.
For `CC(C)Cc1cn(CCC[C@@H]2CC(=O)[C@@]3(C)CC[C@@H]4c5ccc(O)cc5CC[C@H]4[C@H]23)nn1` [Compound 24, 3-Hydroxy-15β-[3-(4-iso-butyl-[1,2,3]triazol-1-yl)-propyl]-estra-1,3,5(10)-trien-17-one], in test [1] (100 nM inhibitor), the inhibition at 0.1 µM is 52%. Also, in test [1] (1 µM inhibitor), the inhibition at 1 µM was 85%. At 17β-HSD3, this compound displayed an inhibition at 1 µM of 24% and an inhibition at 10 µM of 64%.
Turning to `C[C@]12CC[C@@H]3c4ccc(O)cc4CC[C@H]3[C@@H]1[C@H](CCn1cc(-c3cccc(C(F)(F)F)c3)nn1)CC2=O` [Compound 9, 3-Hydroxy-15β-{2-[4-(3-trifluoromethyl-phenyl)-[1,2,3]triazol-1-yl]-ethyl}-estra-1,3,5(10)-trien-17-one], the inhibition at 0.1 µM in test [1] (100 nM inhibitor) stood at 84%. The inhibition at 1 µM in test [1] (1 µM inhibitor) was found to be 93%.
Take `C[C@]12CC[C@@H]3c4ccc(O)cc4CC[C@H]3[C@@H]1[C@H](CCn1cc(CC3CCCCC3)nn1)CC2=O` [Compound 6, 3-Hydroxy-15β-[2-(4-cyclohexylmethyl-[1,2,3]triazol-1-yl)-ethyl]-estra-1,3,5(10)-trien-17-one]: the inhibition at 0.1 µM in test [1] (100 nM inhibitor) came out at 92%. Moreover, in test [1] (1 µM inhibitor), the inhibition at 1 µM worked out at 94%. At 17β-HSD3, this compound came in with an inhibition at 1 µM of 16% and an inhibition at 10 µM of 50%.
For the compound `C[C@]12CC[C@@H]3c4ccc(O)cc4CC[C@H]3[C@@H]1[C@H](CCn1cc(-c3cccc(O)c3)nn1)CC2=O` [Compound 2, 3-Hydroxy-15β-{2-[4-(3-hydroxy-phenyl)-[1,2,3]triazol-1-yl]-ethyl}-estra-1,3,5(10)-trien-17-one], the inhibition at 0.1 µM in test [1] (100 nM inhibitor) is 88%. The inhibition at 1 µM in test [1] (1 µM inhibitor) was 97%.
For `C[C@]12CC[C@@H]3c4ccc(O)cc4CC[C@H]3[C@@H]1[C@H](CCCn1cc(-c3cc(F)cc(F)c3)nn1)CC2=O` [Compound 18, 3-Hydroxy-15ß-{3-[4-(3,5-Difluoro-phenyl)-[1,2,3]triazol-1-yl]-propyl}-estra-1,3,5(10)-trien-17-one], in that order: 64% and 88%.
The corresponding values for `C[C@]12CC[C@@H]3c4ccc(O)cc4CC[C@H]3[C@@H]1[C@H](CCn1cc(-c3ccc(C(F)(F)F)cc3)nn1)CC2=O` [Compound 10, 3-Hydroxy-15β-{2-[4-(4-trifluoromethyl-phenyl)-[1,2,3]triazol-1-yl]-ethyl}-estra-1,3,5(10)-trien-17-one] are 83% and 93%.
The corresponding values for `C[C@]12CC[C@@H]3c4ccc(O)cc4CC[C@H]3[C@@H]1[C@H](CCn1cc(CCc3ccccc3)nn1)CC2=O` [Compound 1, 3-Hydroxy-15ß-[2-(4-phenethyl-[1,2,3]triazol-1-yl)-ethyl]-estra-1,3,5(10)-trien-17-one] are 92% and 98%.
For the compound `C[C@]12CC[C@@H]3c4ccc(O)cc4CC[C@H]3[C@@H]1[C@H](CCn1cc(-c3ccc(OC(F)(F)F)cc3)nn1)CC2=O` [Compound 13, 3-Hydroxy-15β-{2-[4-(4-trifluoromethoxy-phenyl)-[1,2,3]triazol-1-yl]-ethyl}-estra-1,3,5(10)-trien-17-one], the inhibition at 0.1 µM in test [1] (100 nM inhibitor) stood at 83%. In test [1] (1 µM inhibitor), the inhibition at 1 µM was 92%.
With `C[C@]12CC[C@@H]3c4ccc(O)cc4CC[C@H]3[C@@H]1[C@H](CCCn1cc(-c3ccc(F)cc3F)nn1)CC2=O` [Compound 28, 3-Hydroxy-15β-{3-[4-(2,4-difluoro-phenyl)-[1,2,3]triazol-1-yl]-propyl}-estra-1,3,5(10)-trien-17-one], in test [1] (100 nM inhibitor), the inhibition at 0.1 µM was 40%. Also, the inhibition at 1 µM in test [1] (1 µM inhibitor) is 83%.
Consider `C[C@]12CC[C@@H]3c4ccc(O)cc4CC[C@H]3[C@@H]1[C@H](CCCn1cc(CC3CCCCC3)nn1)CC2=O` [Compound 21, 3-Hydroxy-15β-[3-(4-cyclohexylmethyl-[1,2,3]triazol-1-yl)-propyl]-estra-1,3,5(10)-trien-17-one], for which the inhibition at 0.1 µM in test [1] (100 nM inhibitor) was 50%. In test [1] (1 µM inhibitor), the inhibition at 1 µM stood at 86%.
For `COC(=O)c1ccc(-c2cn(CCC[C@@H]3CC(=O)[C@@]4(C)CC[C@@H]5c6ccc(OC)cc6CC[C@H]5[C@H]34)nn2)cc1` [Compound 89, 4-{1-[3-(3-Methoxy-15β-17-oxo-estra-1,3,5(10)-trien-15-yl)-propyl]-1H-[1,2,3]triazol-4-yl}-benzoic acid methyl ester], the “inhibition of rec. 17β-HSD1” value is given as 11% in test [1] (100 nM inhibitor) and 52% in test [1] (1 µM inhibitor).
Take `C[C@]12CC[C@@H]3c4ccc(O)cc4CC[C@H]3[C@@H]1[C@H](CCn1cc(-c3ccc(F)cc3F)nn1)CC2=O` [Compound 3, 3-Hydroxy-15β-{2-[4-(2,4-difluoro-phenyl)-[1,2,3]triazol-1-yl]-ethyl}-estra-1,3,5(10)-trien-17-one]: the inhibition at 0.1 µM in test [1] (100 nM inhibitor) came to 86%. For the same compound, the inhibition at 1 µM in test [1] (1 µM inhibitor) came to 96%.
The corresponding values for `COc1ccc(-c2cn(CC[C@@H]3CC(=O)[C@@]4(C)CC[C@@H]5c6ccc(O)cc6CC[C@H]5[C@H]34)nn2)cc1` [Compound 11, 3-Hydroxy-15β-{2-[4-(4-methoxy-phenyl)-[1,2,3]triazol-1-yl]-ethyl}-estra-1,3,5(10)-trien-17-one] are 75% and 93%.
Turning to `CC(C)CCc1cn(CCC[C@H]2CC(=O)[C@@]3(C)CC[C@@H]4c5ccc(O)cc5CC[C@H]4[C@H]23)nn1` [Compound 30, 3-hydroxy-15-[3-(4-isopentyl-[1,2,3]triazol-1-yl)-propyl]-13-methyl-6,7,8,9,11,12,13,14,15,16-decahydro-cyclopenta[a]phenanthren-17-one], in test [1] (100 nM inhibitor), the inhibition at 0.1 µM came to 25%. Moreover, the inhibition at 1 µM in test [1] (1 µM inhibitor) turned out to be 82%.
Regarding `CC(C)Cc1cn(CCC[C@H]2CC(=O)[C@@]3(C)CC[C@@H]4c5ccc(O)cc5CC[C@H]4[C@H]23)nn1` [Compound 31, 3-Hydroxy-15-[3-(4-isobutyl-[1,2,3]triazol-1-yl)-propyl]-13-methyl-6,7,8,9,11,12,13,14,15,16-decahydro-cyclopenta[a]phenanthren-17-one], the inhibition at 0.1 µM in test [1] (100 nM inhibitor) turned out to be 32%. Besides, the inhibition at 1 µM in test [1] (1 µM inhibitor) was 82%.
